In patent publication US8921307B2, “Synthetic linear apelin mimetics for the treatment of heart failure” (priority 2012, dated 2014):
Where a SMILES comes first, the peptide text is derived from it. [ ]: non-standard residue; d: D form. pGlu = O=C1CC[C@@H](C(=O)O)N1; dNle = CCCC[C@@H](N)C(=O)O; dNva = CCC[C@@H](N)C(=O)O

Tests used:
[1] = Surrogate Activity-Based Plasma Stability Assay; format: in vitro ADME; details: rat, Surrogate activity-based Plasma stability t½
Description: Stability half-life was then calculated by the formula, t½=0.693÷k Surrogate Activity-Based Plasma Stability Assay: […]
2) Calculate slope of value above and […]

hAPJ = molecular target: T1, hAPJ (Homo sapiens, UniProt P35414); assay: hAPJ Calcium Flux Assay; format: cell-based; details: Chem-5 APJ stable cells, FLIPR calcium flux stimulation; read-out: hAPJ Ca^2+ Flux EC50
T1 sequence (P35414 1-380): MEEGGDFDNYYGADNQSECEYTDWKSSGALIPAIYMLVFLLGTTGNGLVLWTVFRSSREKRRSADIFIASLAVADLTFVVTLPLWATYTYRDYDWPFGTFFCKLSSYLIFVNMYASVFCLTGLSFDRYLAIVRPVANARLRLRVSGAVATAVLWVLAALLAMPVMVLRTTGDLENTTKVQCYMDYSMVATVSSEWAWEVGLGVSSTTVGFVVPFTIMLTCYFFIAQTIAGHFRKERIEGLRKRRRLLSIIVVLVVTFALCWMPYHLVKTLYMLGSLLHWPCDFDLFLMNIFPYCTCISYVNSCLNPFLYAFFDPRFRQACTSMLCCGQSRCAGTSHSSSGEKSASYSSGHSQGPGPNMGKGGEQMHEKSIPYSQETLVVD
Method in brief: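 Chem-5 cells stably expressing APJ, loaded 1 h with Calcium 4 dye plus 2.5 mM probenecid at 37 °C. Peptides added at final […] in HBSS/HEPES/0.1% BSA, in triplicate.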

CCCC[C@@H](NC(=O)[C@@H]1CCCN1C(=O)CNC(=O)[C@H](CCCCN)NC(=O)[C@@H](C)NC(=O)[C@H](CO)NC(=O)[C@H](CC(C)C)NC(=O)[C@H](CCCNC(=N)N)NC(=O)[C@@H]1CCCN1C(=O)[C@H](CCCNC(=N)N)NC(=O)[C@@H]1CCC(=O)N1)C(=O)N[C@H](C)C(=O)N[C@H](Cc1ccccc1)C(=O)O [Example 51, pE-R-P-R-L-S-a-K-G-P-nle-a-f-OH] ([pGlu]RPRLS[dA]KGP[dNle][dA][dF]-OH)
half-life [1]: > 16.7 h | EC50 (hAPJ): 8.5 nM

CCCC[C@@H](NC(=O)[C@@H]1CCCN1C(=O)CNC(=O)[C@H](CCCCN)NC(=O)[C@H](Cc1c[nH]cn1)NC(=O)[C@@H](CCC)NC(=O)[C@H](CC(C)C)NC(=O)[C@H](CCCNC(=N)N)NC(=O)[C@@H]1CCCN1C(=O)[C@H](CCCNC(=N)N)NC(=O)[C@@H]1CCC(=O)N1)C(=O)N[C@H](C)C(=O)N[C@H](Cc1ccccc1)C(=O)O [Example 52, pE-R-P-R-L-nva-H-K-G-P-nle-a-f-OH] ([pGlu]RPRL[dNva]HKGP[dNle][dA][dF]-OH)
half-life [1]: > 16.7 h | EC50 (hAPJ): 19.5 nM

CCC[C@@H](NC(=O)[C@@H]1CCCN1C(=O)CNC(=O)[C@H](CCCCN)NC(=O)[C@H](Cc1c[nH]cn1)NC(=O)[C@@H](C)NC(=O)[C@H](CC(C)C)NC(=O)[C@H](CCCNC(=N)N)NC(=O)[C@@H]1CCCN1C(=O)[C@H](CCCNC(=N)N)NC(=O)[C@@H]1CCC(=O)N1)C(=O)N[C@H](C)C(=O)N[C@H](Cc1ccccc1)C(=O)O [Example 53, pE-R-P-R-L-a-H-K-G-P-nva-a-f-OH] ([pGlu]RPRL[dA]HKGP[dNva][dA][dF]-OH)
half-life [1]: > 16.7 h | EC50 (hAPJ): 8.7 nM

CCCC[C@@H](NC(=O)[C@@H]1CCCN1C(=O)CNC(=O)[C@H](CCCCN)NC(=O)[C@H](Cc1c[nH]cn1)NC(=O)[C@@H](C)NC(=O)[C@H](CC(C)C)NC(=O)[C@H](CCCNC(=N)N)NC(=O)[C@@H]1CCCN1C(=O)[C@H](CCCNC(=N)N)NC(=O)[C@@H]1CCC(=O)N1)C(=O)N[C@H](CCC)C(=O)N[C@H](Cc1ccccc1)C(=O)O [Example 54, pE-R-P-R-L-a-H-K-G-P-nle-nva-f-OH] ([pGlu]RPRL[dA]HKGP[dNle][dNva][dF]-OH)
half-life [1]: 15 h | EC50 (hAPJ): 0.9 nM

CCCC[C@@H](NC(=O)[C@@H]1CCCN1C(=O)CNC(=O)[C@H](CCCCN)NC(=O)[C@@H](Cc1ccccc1)NC(=O)[C@H](CO)NC(=O)[C@H](CC(C)C)NC(=O)[C@H](CCCNC(=N)N)NC(=O)[C@@H]1CCCN1C(=O)[C@H](CCCNC(=N)N)NC(=O)[C@@H]1CCC(=O)N1)C(=O)N[C@H](C)C(=O)N[C@H](Cc1ccccc1)C(=O)O [Example 55, pE-R-P-R-L-S-f-K-G-P-nle-a-f-OH] ([pGlu]RPRLS[dF]KGP[dNle][dA][dF]-OH)
half-life [1]: 1.68 h | EC50 (hAPJ): 72.8 nM

CCCC[C@@H](NC(=O)[C@@H]1CCCN1C(=O)CNC(=O)[C@H](CCCCN)NC(=O)[C@@H](Cc1c[nH]cn1)NC(=O)[C@H](CO)NC(=O)[C@H](CC(C)C)NC(=O)[C@H](CCCNC(=N)N)NC(=O)[C@@H]1CCCN1C(=O)[C@H](CCCNC(=N)N)NC(=O)[C@@H]1CCC(=O)N1)C(=O)N[C@H](C)C(=O)N[C@H](Cc1ccccc1)C(=O)O [Example 56, pE-R-P-R-L-S-h-K-G-P-nle-a-f-OH] ([pGlu]RPRLS[dH]KGP[dNle][dA][dF]-OH)
half-life [1]: 5.52 h | EC50 (hAPJ): 6.8 nM

CC(C)C[C@H](NC(=O)[C@H](CCCNC(=N)N)NC(=O)[C@@H]1CCCN1C(=O)[C@H](CCCNC(=N)N)NC(=O)[C@@H]1CCC(=O)N1)C(=O)N[C@H](C)C(=O)N[C@@H](Cc1c[nH]cn1)C(=O)N[C@@H](CCCCN)C(=O)NCC(=O)N1CCC[C@H]1C(=O)N[C@H](Cc1ccccc1)C(=O)N[C@H](C)C(=O)N[C@H](Cc1ccccc1)C(=O)O [Example 57, pE-R-P-R-L-a-H-K-G-P-f-a-f-OH] ([pGlu]RPRL[dA]HKGP[dF][dA][dF]-OH)
half-life [1]: > 16.7 h | EC50 (hAPJ): 1.5 nM
